This passage reports Ki and inhibition results from ChEMBL document CHEMBL2177016 (J Med Chem, 2012).

The term Ki denotes the dissociation constant of the complex between target and ligand, obtained from inhibition or displacement.

Each structure is given as a SMILES string. The source made the active and inactive calls. The rule behind the calls is not given here.

Experiment [1] addresses T1, PROBABLE TRANSMEMBRANE CARBONIC ANHYDRASE (CARBONATE DEHYDRATASE) (CARBONIC DEHYDRATASE) (Mycobacterium tuberculosis, UniProt P96878).
T1 sequence (P96878 whole entry): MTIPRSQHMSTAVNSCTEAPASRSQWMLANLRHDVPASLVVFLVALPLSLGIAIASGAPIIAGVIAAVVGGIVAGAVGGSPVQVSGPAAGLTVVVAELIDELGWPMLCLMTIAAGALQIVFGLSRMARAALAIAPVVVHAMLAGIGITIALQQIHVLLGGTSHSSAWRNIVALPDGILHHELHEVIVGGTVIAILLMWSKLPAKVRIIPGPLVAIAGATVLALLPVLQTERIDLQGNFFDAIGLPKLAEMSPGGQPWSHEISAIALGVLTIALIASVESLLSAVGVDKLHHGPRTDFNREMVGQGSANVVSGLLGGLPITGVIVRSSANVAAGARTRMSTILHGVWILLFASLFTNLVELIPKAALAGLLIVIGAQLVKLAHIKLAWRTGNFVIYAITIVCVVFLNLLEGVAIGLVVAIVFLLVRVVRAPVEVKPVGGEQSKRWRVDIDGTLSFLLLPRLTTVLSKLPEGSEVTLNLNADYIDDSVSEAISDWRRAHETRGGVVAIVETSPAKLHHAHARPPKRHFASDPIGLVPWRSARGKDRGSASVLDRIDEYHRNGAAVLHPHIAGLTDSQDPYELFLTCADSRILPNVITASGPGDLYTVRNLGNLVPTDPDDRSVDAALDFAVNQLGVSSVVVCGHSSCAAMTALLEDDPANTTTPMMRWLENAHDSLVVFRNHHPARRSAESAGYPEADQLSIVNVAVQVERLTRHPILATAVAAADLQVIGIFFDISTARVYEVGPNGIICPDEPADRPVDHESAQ
Description: Inhibition of Mycobacterium tuberculosis recombinant carbonic anhydrase Rv3273 pre-incubated for 15 mins by stopped-flow CO2 hydration method

The next experiment deals with Carbonic anhydrase 3 (Homo sapiens, UniProt P07451).
Sequence of Carbonic anhydrase 3 (P07451 whole entry): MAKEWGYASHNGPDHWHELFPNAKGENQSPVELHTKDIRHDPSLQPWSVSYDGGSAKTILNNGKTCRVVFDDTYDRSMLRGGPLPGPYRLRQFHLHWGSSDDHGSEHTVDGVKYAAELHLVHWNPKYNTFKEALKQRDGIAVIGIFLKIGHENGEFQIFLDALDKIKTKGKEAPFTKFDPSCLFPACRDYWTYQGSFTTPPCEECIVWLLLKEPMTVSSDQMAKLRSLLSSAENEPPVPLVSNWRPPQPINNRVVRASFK
Experiment [2] has as its target T2, Prostaglandin G/H synthase 2 (Ovis aries) (UniProt P79208).
T2 sequence (whole entry): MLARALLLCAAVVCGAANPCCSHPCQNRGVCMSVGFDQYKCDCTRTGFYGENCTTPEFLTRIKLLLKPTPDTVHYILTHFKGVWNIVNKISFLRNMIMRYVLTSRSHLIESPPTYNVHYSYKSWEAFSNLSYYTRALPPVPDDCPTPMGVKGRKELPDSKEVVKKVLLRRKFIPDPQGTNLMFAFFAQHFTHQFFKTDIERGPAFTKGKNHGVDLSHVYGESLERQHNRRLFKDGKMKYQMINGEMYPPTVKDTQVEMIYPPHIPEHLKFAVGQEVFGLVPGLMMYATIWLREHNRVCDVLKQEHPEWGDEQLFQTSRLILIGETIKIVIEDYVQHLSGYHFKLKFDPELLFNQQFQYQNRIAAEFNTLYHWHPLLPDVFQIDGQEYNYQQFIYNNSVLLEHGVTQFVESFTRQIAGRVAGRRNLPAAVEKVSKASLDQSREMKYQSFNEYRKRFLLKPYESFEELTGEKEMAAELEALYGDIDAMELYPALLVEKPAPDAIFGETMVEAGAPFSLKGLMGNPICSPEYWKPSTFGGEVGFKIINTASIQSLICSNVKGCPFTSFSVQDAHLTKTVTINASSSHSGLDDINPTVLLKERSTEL
Nature of the experiment: Inhibition of ovine COX2 at 100 uM incubated for 5 mins by colorimetric assay.

The target in another experiment is T3, Carbonic anhydrase 2 (Mycobacterium tuberculosis, UniProt P9WPJ9).
T3 sequence (P9WPJ9 whole entry): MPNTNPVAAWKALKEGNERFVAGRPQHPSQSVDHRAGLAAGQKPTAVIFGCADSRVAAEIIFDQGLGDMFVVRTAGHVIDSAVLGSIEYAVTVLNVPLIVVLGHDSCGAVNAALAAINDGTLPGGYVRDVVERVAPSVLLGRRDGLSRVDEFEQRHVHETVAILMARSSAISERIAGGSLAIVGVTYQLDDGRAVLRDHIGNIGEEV

Experiment [3] has as its target T4, Beta-carbonic anhydrase 1 (Mycobacterium tuberculosis, UniProt P9WPJ7).
T4 sequence (P9WPJ7 whole entry): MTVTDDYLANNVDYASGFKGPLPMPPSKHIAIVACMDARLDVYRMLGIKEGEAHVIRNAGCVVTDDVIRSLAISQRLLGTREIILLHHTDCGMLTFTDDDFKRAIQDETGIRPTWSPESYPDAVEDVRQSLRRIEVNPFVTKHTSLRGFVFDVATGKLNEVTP
Description: Inhibition of Mycobacterium tuberculosis recombinant carbonic anhydrase Rv1284 pre-incubated for 15 mins by stopped-flow CO2 hydration method

Another experiment has as its target Carbonic anhydrase 9 (Homo sapiens, UniProt Q16790).

Description for Carbonic anhydrase 2: Inhibition of Mycobacterium tuberculosis recombinant carbonic anhydrase Rv3588c pre-incubated for 15 mins by stopped-flow CO2 hydration method
Description for Carbonic anhydrase 3: Inhibition of human recombinant full length CA3 pre-incubated for 15 mins by stopped-flow CO2 hydration method
Description for Carbonic anhydrase 9: Inhibition of human recombinant CA9 catalytic domain pre-incubated for 15 mins by stopped-flow CO2 hydration method

`Cc1ccc(-c2cc(C(F)(F)F)nn2-c2ccc(S(N)(=O)=O)cc2)cc1` [CELECOXIB]: the Ki was found to be 7.76 µM in experiment [1] and 7.4 µM at Carbonic anhydrase 3.
Consider `NS(=O)(=O)c1ccc(-n2ncc3c2-c2cccnc2SC3)cc1`, for which the inhibition result in experiment [2] was “inactive”. Further, the Ki came out at 0.286 µM in experiment [1], 0.273 µM on Carbonic anhydrase 2, 0.134 µM in experiment [3] and 2.34 µM on Carbonic anhydrase 9.
The like results for `NS(=O)(=O)c1ccc(-n2ncc3c2-c2ccc(Cl)cc2SC3)cc1` were, in that order, “inactive”, 0.316 µM, 0.235 µM, 0.412 µM and 1.84 µM.
Regarding `COc1ccc2c(c1)SCc1cnn(-c3ccc(S(N)(=O)=O)cc3)c1-2`, the inhibition entry in experiment [2] is “inactive”. The Ki in experiment [1] turned out to be 0.75 µM; on Carbonic anhydrase 2, 0.61 µM; in experiment [3], 0.87 µM; on Carbonic anhydrase 9 it was 2.18 µM.
The corresponding values for `NS(=O)(=O)c1ccc(-n2ncc3c2-c2ccc(C(F)(F)F)cc2SC3)cc1` are “inactive”, 0.238 µM, 0.357 µM, 0.613 µM and 2.57 µM.
On to `Cc1ccc2c(n1)SCc1cnn(-c3ccc(S(N)(=O)=O)cc3)c1-2`, for which the inhibition result in experiment [2] was “inactive”. The values for the Ki (in experiment [1]; on Carbonic anhydrase 2; in experiment [3]) were 0.241 µM, 0.144 µM and 0.115 µM, respectively.
